The AUC(0-inf) is total exposure, with the tail of the curve extrapolated.

The text below walks through data of patent publication EP4772520A1, “NOVEL PRODRUG-TYPE ANTICANCER AGENT TARGETING CANCER-SPECIFIC ENZYME ACTIVITY” (priority 2023, dated 2025).

“Also recorded” adds a separate entry of the source. Like-named read-outs stand apart in the source and are kept apart here.

For series [1], the system named is luciferase-expressing SKOV3 cells. As to the kind of experiment: Therapeutic experiment of SN38-βGal in SKOV3 ovarian cancer peritoneal dissemination model. It is filed as in vivo, mice. The following applies: for body weight: 20 mg/kg i.p. 5 times a week; for tumor proliferation suppression effect: 20 mg/kg i.p. 5 times a week over 4 weeks and 3 days, vs Vehicle, 20 mg/kg. Here is the method: Next, the therapeutic effect of SN38-βGal in the ovarian cancer peritoneal dissemination model was verified. Vehicle (DMSO) group (n = 5), SN38-βGal, and 20 mg/kg (n = 4) were set, and 20 mg/kg was intraperitoneally administered 5 times a week (2 days off) over 4 weeks and 3 days.
A specific procedure of the therapeutic experiment is shown below. • (1) 1.5 × 10^6 luciferase-expressing SKOV3 cells were intraperitoneally administered to BALB/cAJcl-nu/nu (7 weeks old). • (2) After one week, the formation of cancer was confirmed by luciferin/luciferase chemiluminescence. • (3) Intraperitoneal administration of the drug was started in a cycle in which the drug was administered to the mice in which formation of cancer was confirmed for five consecutive days within 1 week and the drug was withdrawn for 2 days. The drug was prepared by dissolving a 100 mM of DMSO stock in PBS, and administered in a total amount of 100 µL. • (4) On the evaluation day, 3 mg of luciferin potassium dissolved in 200 µL of PBS was intraperitoneally administered, and anesthetized with isoflurane, and then the luminescence value 15 minutes after the administration was measured with an in vivo imaging device. At the same time, the body weight was measured.
According to the same protocol as that of the first therapeutic experiment, Vehicle (DMSO) group (n = 5), SN38-βGal, and 20 mg/kg (n = 4) were set, and 20 mg/kg was intraperitoneally administered 5 times a week (2 days off) over 4 weeks and 3 days.

Series [2] can be described thus: Kinetic test in intraperitoneal administration. It is filed as in vivo, Mice. The following applies: 30 mg/kg i.p. Here is the method: A specific procedure of the pharmacokinetics test is shown below. • (1) SN38-βGal (30 mg/kg) was dissolved in 100 µL of PBS and administered by i.p. • (2) 150 to 200 µL of anesthesia (in the case of a mixture of three types of Domitor + Betorphal + Mitazolam) was intraperitoneally administered 5 minutes before dissection at each time. • (3) The inside of a syringe was coated with sodium heparin, and at each evaluation time, the mouse was quickly stuck to the dissecting pad, and the abdomen was opened without bleeding, and whole blood was collected from the right ventricle with a 23 G needle. 100 µM β-Galactosidase inhibitor was added to whole blood. • (4) After whole blood collection, brain, heart, lung, liver, pancreas, spleen, kidney, stomach, small intestine, large intestine, muscle, and fat were taken out. As the muscle, a muscle near the thigh was resected. The weight of each organ was measured. • (5) Whole blood was centrifuged at 1200 G for 15 min at 4°C, and 200 µL of supernatant was collected. 800 µL of a solution of MeOH/MeCN = 1:1 (containing Rhodamine 123 = 25 µM as an internal standard) was added thereto, and the mixture was allowed to stand for 10 minutes. • (6) After standing, centrifugation was performed at 1700 G for 15 min at 4°C, and the supernatant was collected. About 80 µL of the mixture was fractionated, loaded on a Cosmo Spin Filter G (0.2 um), centrifuged at 12000 G for 5 min at 4°C, and filtered to collect a sample. • (7) Each resected organ was finely cut and put into a tube of Lysing Matrix D, 1000 µL of Lysis Buffer (added with 100 µM β-Galactosidase inhibitor) was added thereto, and the mixture was crushed with a shaker. • (8) The supernatant was collected from the tube of Lysing Matrix, and then centrifuged at 10,000 G for 5 min at 4°C to collect the supernatant to obtain a lysate solution. • (9) To 100 µL of the organ lysate solution, 200 µL of MeOH/MeCN = 1:1 (containing 30 µM of Rhodamine 123 as an internal standard) was added, and the mixture was allowed to stand for 10 minutes. • (10) Centrifugation was performed at 1700 G for 15min at 4°C to collect 200 µL of the supernatant. The supernatant was loaded on a Cosmo Spin Filter G (0.2 µm) and centrifuged at 12000 G for 5 min at 4°C to collect a sample. • (11) 50 µL of purified water and 50 µL of a filtered plasma sample or organ lysate sample were mixed, 10 µL of the mixture was injected into HPLC, and data of the area under the curve of the PDA spectrum at 380 nm (derived from SN 38) and 490 nm (derived from Rhodamine 123) were acquired, and then the respective numerical values were calculated from the volume for blood and the weight for organs by one inspection amount of Rhodamine 123.
A specific procedure of the intraperitoneal concentration evaluation test is shown below. • (1) Intraperitoneal administration (i.p.) was performed on an evaluation amount of the drug. • (2) 2.0 mL of PBS was administered by i.p. at each evaluation time, and the abdomen was immediately massaged and sacrificed so that the drug could be collected as much as possible on the PBS side after administration. A small hole was made in the abdomen, and PBS in the abdominal cavity was quickly collected with a 1.0 mL syringe in a pushing manner, and this solution was used as an peritoneal washing solution. • (3) To 200 µL of the collected peritoneal washing solution, 800 µL (containing Rhodamine 123 = 25 µM) of 800 µL MeCN/MeOH = 1:1 was added to precipitate proteins. The supernatant was collected by centrifugation at 1700 G for 5 min at 4°C. • (4) 80 µL of the recovered supernatant was loaded on a cosmo spin filter G and centrifuged at 12000 G for 5 min at 4°C, and 50 µL of purified water was added to 50 µL of the recovered material to adjust the total amount to 100 µL to prepare a sample. • (5) The concentration of SN38-βGal was measured by HPLC, and the concentration of the recovered peritoneal washing solution was calculated.

Regarding `CCc1c2c(nc3ccc(O[C@@H]4O[C@H](CO)[C@H](O)[C@H](O)[C@H]4O)cc13)-c1cc3c(c(=O)n1C2)COC(=O)[C@]3(O)CC` [SN38-βGal], the body weight result in series [1] (first experiment) and in series [1] (second experiment) was “no significant body weight loss was found” throughout. For the same compound, the “tumor proliferation suppression effect” value in series [1] (first experiment) is “the tumor proliferation suppression effect was suggested again; also recorded: significantly suppressed tumor growth”; in series [1] (second experiment), “the tumor proliferation suppression effect was confirmed again; also recorded: significantly suppressed tumor growth”. For the same compound, in series [2], the “time of highest blood concentration” value is listed as “around 10 minutes”. In addition, in series [2] (10 minutes to 60 minutes after administration), the organ distribution result was “the absorption from the small intestine was large, and only a slight distribution was confirmed in the brain”. Moreover, in series [2] (at 30 minutes), the intraperitoneal concentration entry is reported as “about 17%”. The half-life in series [2] (mouse, blood, ip, read-out: blood half-life) was around 30 min; in series [2] (mouse, in vivo, ip, read-out: t1/2 (converted)), 11.8 min. In series [2] (mouse, in vivo, ip), this compound displayed an AUC(0-inf) of 15900 ng·h/mL. Besides, the AUC(0-t) at 1 h in series [2] (mouse, in vivo, ip, read-out: AUC0-1h) turned out to be 15400 ng·h/mL.
